From patent US7868019B2, “Dermatitis treating agent” (Mitsubishi Tanabe Pharma Corporation, priority 2005, dated 2011)

How the values were obtained:
Contact Dermatitis Model = assay: Contact dermatitis model (oxazolone sensitization and challenge, ear swelling); assay type: in vivo, BALB/c male mice; conditions: BALB/c mice, oxazolone-sensitized; topical challenge on right ear at Day 7 with 0.5% oxazolone containing 1% (w/v) test compound; ear thickness 24 hours after challenge vs control
Procedure: (1) Effects of Test Compounds in Contact Dermatitis Model (Method) BALB/c male mice (BALB/c AnNCrlCrlj, 5-weeks old, acclimating term: one week, body weight: 20 to 30 g, one group: 4 to 6 mice, available from CHARLES RIVER LABORATORIES JAPAN, INC.) were sensitized by epicutaneous application of 100 μL 0.5% (w/v) oxazolone solution (Solvent: acetone) on the shaved abdomen (Day 0). At the 7th day (Day 7) after sensitization, mice were challenged on both sides of right ears by topical application of 20 μL (10 μL for each side) 0.5% (w/v) oxazolone solution containing 1% (w/v) of respective test compounds (Solvent: acetone or an equal amount mixture of acetone/ethanol). Ear thickness was measured before and 24 hours after challenge by using a thickness gauge. In the control group, sensitized animals were challenged with 20 μL 0.5% (w/v) oxazolone solution containing no test compound (Solvent: acetone) on right ears. Effects of the respective test compounds were expressed as ear swelling inhibitory rate (%) given by the following formula. Ear swelling inhibitory rate (%)=[1−(mean ear swelling of group treated with test compound/mean ear swelling of control group)]×100 Note) Ear swelling=Ear thickness 24 hours after challenge at Day 7−Ear thickness before challenge at Day 7 (2) Effects of Test Compounds on Dermatitis Models Induced by Repeated Topical Application of Hapten (Method)

[1] = system: Dermatitis Models Induced by Repeated Topical Application of Hapten; assay: Dermatitis model induced by repeated topical application of hapten (oxazolone, ear swelling); assay type: in vivo, BALB/c male mice; conditions: BALB/c mice; repeated topical challenge (Day 0, 2, 4, 7, 9) with 0.5% oxazolone containing 1% (w/v) test compound; ear thickness 24 hours after final challenge at Day 9 vs control
Procedure: Effects of the respective test compounds were expressed as ear swelling inhibitory rate (%) given by the following formula. Ear swelling inhibitory rate (%)=[1−(mean ear swelling of group treated with test compound/mean ear swelling of control group)]×100 Note) Ear swelling=Ear thickness 24 hours after challenge at Day 7−Ear thickness before challenge at Day 7 (2) Effects of Test Compounds on Dermatitis Models Induced by Repeated Topical Application of Hapten (Method) […], BALE/c male mice (BALB/c AnNCrlCrlj, 5-weeks old, acclimating term: one week, body weight: 20 to 30 g, one group: 4 to 6 mice, available from CHARLES RIVER LABORATORIES JAPAN, INC.) were sensitized on both sides of right ears by a topical application of 20 μL (10 μL for each side) 0.5% (w/v) oxazolone solution (Solvent: acetone)(Day−7). At the respective points of the 7th day (Day 0), 9th day (Day 2), 11th day (Day 4), 14th day (Day 7) and 16th day (Day 9) after sensitization, mice were challenged on the both sides of right ears by topical application of 20 μL (10 μL for each side) 0.5% (w/v) oxazolone solution containing 1% (w/v) of the respective test compounds (Solvent: acetone or an equal amount mixture of acetone/ethanol). Ear thickness was measured before challenge of the test compound solution or suspension by using a thickness gauge. At the final day (Day 9), ear thickness was measured also 24 hours after challenge. In control group, sensitized animals were challenged with 20 μL 0.5% (w/v) oxazolone solution containing no test compound (Solvent: acetone) on right ears. Effects of the respective test compounds were expressed as ear swelling inhibitory rate (%) given by following formula. Ear swelling inhibitory rate (%)=[1−(mean ear swelling of group treated with test compound/mean ear swelling of control group)]×100 Note) Ear swelling=(Thickness of ear 24 hours after final challenge at Day 9)−(Thickness of ear before sensitization at Day−7)

Compound | Ear swelling inhibitory rate (%) Contact dermatitis model (Contact Dermatitis Model) | Ear swelling inhibitory rate (%) Dermatitis model induced by repeated application of Hapten [1]
1-[2-[4-(dimethylaminophenyl)phthalazin-1(2H)-one-2-yl]-pyridin-4-yl]-2,3-bis(hydroxymethyl)-6,7-dimethoxy-naphthalene [(9)] | 52.0% | 60.0%
COc1cc2cc(CO)c(CO)c(-c3ccnc(-n4c(=O)cc(NCCCNC5CCCCC5)c5ccccc54)c3)c2cc1OC [(8), 1-[2-[1,2-dihydro-4-[3-(cyclohexylamino)propylamino]-2-oxoquinolin-1-yl]pyridin-4-yl]-2,3-bis(hydroxymethyl)-6,7-dimethoxynaphthalene] | 75.0% | 37.0%
COc1cc2cc(CO)c(CO)c(-c3ccnc(-n4nc(-c5cccnc5)c5cc(OC)c(OC)cc5c4=O)c3)c2cc1OC [(10), 1-[2-[6,7-dimethoxy-4-(3-pyridyl)phthalazin-1(2H)-one-2-yl]pyridin-4-yl]-2,3-bis(hydroxymethyl)-6,7-dimethoxy-naphthalene] | 66.0% | 
(3S)-1-[2-[4-(dimethylaminophenyl)phthalazin-1(2H)-one-2-yl]pyridin-4-yl]-3,4-dihydro-3-hydroxymethyl-6,7-dimethoxy-isoquinoline [(11)] | 69.0% | 51.0%
